In PubChem BioAssay (NCI):
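Results reflect a 48-hour exposure of cells in 96-well plates to compound at five concentrations. GI50: concentration for 50% inhibition of growth. TGI denotes the concentration required for complete inhibition of growth.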

Key:
Experiment in all cases: growth of human tumour cells (NCI), 48 h
UACC-62 melanoma = test system: UACC-62 melanoma
SK-MEL-28 melanoma = test system: SK-MEL-28 melanoma
HOP-92 NSCLC = test system: HOP-92 NSCLC
MDA-MB-435 = test system: MDA-MB-435
OVCAR-5 ovarian = test system: OVCAR-5 ovarian
OVCAR-8 ovarian = test system: OVCAR-8 ovarian
NCI/ADR-RES ovarian = test system: NCI/ADR-RES ovarian
CCRF-CEM leukemia = test system: CCRF-CEM leukemia

| SMILES | GI50 (UACC-62 melanoma) | TGI (UACC-62 melanoma) | GI50 (SK-MEL-28 melanoma) | TGI (SK-MEL-28 melanoma) | GI50 (HOP-92 NSCLC) | TGI (HOP-92 NSCLC) | GI50 (MDA-MB-435) | TGI (MDA-MB-435) | GI50 (OVCAR-5 ovarian) | TGI (OVCAR-5 ovarian) | GI50 (OVCAR-8 ovarian) | TGI (OVCAR-8 ovarian) | GI50 (NCI/ADR-RES ovarian) | TGI (NCI/ADR-RES ovarian) | GI50 (CCRF-CEM leukemia) | TGI (CCRF-CEM leukemia) |
| --- | --- | --- | --- | --- | --- | --- | --- | --- | --- | --- | --- | --- | --- | --- | --- | --- |
| COc1cc(OC)c(NC(=O)c2cc3ccccc3cc2O)cc1Cl | 2.87 µM | 14.1 µM | 3.6 µM | 17.3 µM | 1.55 µM | 4.89 µM | 2.84 µM | 9.69 µM | 4.7 µM | 34.5 µM | 2.88 µM | 8.45 µM | 2.63 µM | 9.33 µM | – | – |
| C=C(CN1CCN(c2cccc(C(F)(F)F)n2)CC1)c1ccc(C(=S)Nc2ccccc2N)cc1 | 2.28 µM | 6.89 µM | 6.95 µM | 42.1 µM | – | – | 3.77 µM | > 100 µM | 3.67 µM | > 100 µM | 5.33 µM | > 100 µM | 3.12 µM | > 100 µM | – | – |
| CCCCCCCCCCCCOC1C(C(CC(=O)N2CCN(c3cccc(C(F)(F)F)c3)CC2)NS(=O)(=O)c2cc(Cl)cc(Cl)c2)OC2OC(C)(C)OC21 (centres undefined) | > 100 µM | > 100 µM | > 100 µM | > 100 µM | > 100 µM | > 100 µM | > 100 µM | > 100 µM | > 37.5 µM | > 100 µM | > 100 µM | > 100 µM | > 100 µM | > 100 µM | – | – |
| C/C(=C(\c1ccc(OCCN2CCCCCC2)cc1)c1ccc(OC(=O)Cc2ccccc2)cc1)c1ccc(Cl)cc1 | 2.73 µM | 5.2 µM | 2.52 µM | 5.03 µM | – | – | 2.46 µM | 4.66 µM | 2.77 µM | 6.45 µM | 3.24 µM | 6.35 µM | 2.99 µM | 6.86 µM | 3.2 µM | 10.5 µM |
| C=C(C)[C@@H]1CC[C@]2(CO)CC[C@]3(C)[C@H](CC[C@@H]4[C@@]5(C)CCC(NCCc6ccc(O)cc6)C(C)(C)[C@@H]5CC[C@]43C)[C@@H]12 (some centres undefined) | 1.63 µM | 3.09 µM | 1.58 µM | 3 µM | 1.46 µM | 2.95 µM | 1.43 µM | 2.77 µM | 1.59 µM | 2.96 µM | – | – | 1.63 µM | 3.45 µM | 1.67 µM | 4.14 µM |
| COc1cccc2c1c(C1=C(c3cn(C)c4ccccc34)C(=O)NC1=O)cn2C | > 25 µM | > 25 µM | > 25 µM | > 25 µM | – | – | > 13.8 µM | > 25 µM | > 25 µM | > 25 µM | > 25 µM | > 25 µM | > 25 µM | > 25 µM | > 25 µM | > 25 µM |
| O=C(NCc1ccco1)c1ccc(NC2=C(Cl)C(=O)N(Cc3ccccc3)C2=O)cc1 | 16.7 µM | 36.7 µM | 19.9 µM | 43.4 µM | 17.7 µM | 36 µM | 16.3 µM | 37.6 µM | 19.7 µM | 44.9 µM | 42.5 µM | > 100 µM | 18.3 µM | 39.5 µM | – | – |
| O=C(NCc1ccncc1)C12CC3CC(C1)CC(c1ccc(Cl)cc1)(C3)C2 | 5.02 µM | 18.7 µM | 12.7 µM | 25.5 µM | 12 µM | 25.2 µM | 12.7 µM | 25.3 µM | 14 µM | 28.7 µM | – | – | 17.2 µM | 87.8 µM | 17.7 µM | 45 µM |
| N#CC1=C(N)NC(=S)NC12Nc1ccccc1N2 | 12.5 µM | 57.5 µM | 47.4 µM | > 100 µM | – | – | 19.6 µM | > 100 µM | 46.8 µM | > 100 µM | 38.6 µM | > 100 µM | 46.8 µM | > 100 µM | 18.2 µM | > 100 µM |
| Cc1ccc(-c2nc(N3CCCNCC3)c3oc(-c4ccccc4)nc3n2)cc1 | 1.71 µM | 3.3 µM | 1.85 µM | 3.39 µM | – | – | 1.77 µM | 3.19 µM | 1.9 µM | 3.38 µM | – | – | – | – | 1.31 µM | 3.13 µM |
| COc1ccc(-c2nc(N3CCN(C(=O)C4CCCCC4)CC3)c3c4c(sc3n2)CCCC4)cc1 | 40.8 µM | > 100 µM | > 100 µM | > 100 µM | – | – | > 100 µM | > 100 µM | > 100 µM | > 100 µM | 46.4 µM | > 100 µM | > 100 µM | > 100 µM | > 100 µM | > 100 µM |
| S=c1nc(Cl)cc2[nH]c(Cl)cn12 | – | > 100 µM | – | > 100 µM | – | 96.9 µM | – | 4.74 µM | – | – | – | 57.4 µM | – | 6.89 µM | – | 6.04 µM |
| CN(C)CCCNC(=O)c1cncnc1Nc1ccc(OCc2cccc(F)c2)c(Cl)c1 | 1.82 µM | 3.22 µM | 1.79 µM | 3.22 µM | 1.33 µM | 3.16 µM | 1.8 µM | 3.33 µM | 1.67 µM | 3.07 µM | – | – | 1.89 µM | 3.77 µM | 1.82 µM | 3.94 µM |
